According to patent publication US6653529B2, “Use of the maize X112 mutant ahas 2 gene and imidazolinone herbicides for selection of transgenic monocots, maize, rice and wheat plants resistant to the imidazolinone herbicides” (BASF Aktiengesellschaft, priority 2000, dated 2003):

How the values were obtained:
[1] = test system: transgenic rice Line 26; test: Response of rice plants to various herbicides, seed set in greenhouse; assay type: in vivo; conditions: post-emergence, 1× g ai/ha: PURSUIT 62.5, CADRE 32, ARSENAL 24, RAPTOR 32, SCEPTER 125, ACCENT 35, CLASSIC 5, AC322,140 20, LONDAX 68
From the text: (§1) A total of 9 herbicides, 5 imidazolinones, two rice herbicides and ACCENT® (nicosulfuron) and CLASSIC® (clorimuron-ethyl) were applied in this study. Materials and methods were basically the same as described above, except that instead of 6″ pots, flats with 18 (3″×3″ per cell) cells were used, and 10-12 seeds were planted to one 3″×3″ cell. Ten plants were maintained in one cell in the post-emergence application. Each herbicide was sprayed at 4 different rates, 1, 2, 4, and 6×, as either pre or post-emergence applications with three replications per treatment. The name and amount of herbicide applied in this experiment and information relevant to their commercial applications are listed in Table 3. For simplicity and convenience, the lowest concentration used is referred as 1× rate, 2, 4 and 6× rates can be calculated as multiples of 1×.
(§2) To monitor plant response to various herbicides, data on fresh weight was collected. For pre-emergence applications, all plants from one cell were harvested 32 days after spraying (36-day old plants) and weighed. Twenty-nine days after herbicide application, 5 plants (44-day old plants) from each cell in the post-emergence application, were cut and weighed individually. Mean fresh weight for each treatment was calculated over three replications. The remaining 5 plants were grown in the greenhouse to maturity at which time, panicles of 3 plants were collected, and number of filled seeds and number of total kernels were counted to determine percentage of seed set.

[2] = test system: transgenic rice Line 29; test: as above; assay type: in vivo; conditions: post-emergence, 1× g ai/ha: PURSUIT 62.5, CADRE 32, ARSENAL 24, RAPTOR 32, SCEPTER 125, ACCENT 35, CLASSIC 5, AC322,140 20, LONDAX 68
From the text: as §1, §2

[3] = test system: untransformed Nt rice plants; test: as above; assay type: in vivo; conditions: post-emergence, 1× g ai/ha: PURSUIT 62.5, CADRE 32, ARSENAL 24, RAPTOR 32, SCEPTER 125, ACCENT 35, CLASSIC 5, AC322,140 20, LONDAX 68
From the text: as §1, §2

[4] = test system: AHAS (acetohydroxyacid synthase) in extracts of Nortai, Line 26 and Line 29; test: In vitro AHAS activity assay; assay type: biochemical, rice; conditions: a significant portion of the enzyme activity; compared with normal enzyme from Nortai; FIG. 2
Method: Previously published procedures were used for the extraction and in vitro assay for AHAS activity (Singh et al. 1988). Lower portions of the shoots were used as the source of plant tissue for the assay. The desalted crude extracts were used for the in vitro enzyme assays. Acetolactate produced by the enzyme was converted to acetoin, which was measured by the Westerfield assay system.
In vitro AHAS assays were performed to understand the basis of herbicide tolerance in the transgenic plants. Previously published procedure was used for the extraction and in vitro assay for AHAS activity (Singh et al. 1988). The lower portions of the shoots were used as the source of plant tissue for the assay. The desalted crude extracts were used for the in vitro enzyme assays. Acetolactate produced by the enzyme was converted to acetoin, which was measured by the Westerfield assay system (Westerfield 1945). The specific activity of AHAS was about 30% higher in Line 26 (67 nmoles/mg protein/h) and Line 29 (64 nmoles/mg protein/h) compared to the activity in Nortai (Nt) (50 nmoles/mg protein/h).

CC(C)C1(C)N=C(c2ncccc2C(=O)O)NC1=O (stereo not shown) [ARSENAL ®, imazapyr] was tested, and the “% seed-set” value ([1]; 1× rate) was 85%, the “No. filled seeds/3 panicles” value ([1]; 1× rate) was 156 and the “Total No. of kernels/3 panicles” value ([1]; 1× rate) was 183. For the same compound, the “% seed-set” value ([1]; 2× rate) was 77%, the “No. filled seeds/3 panicles” value ([1]; 2× rate) was 132 and the “Total No. of kernels/3 panicles” value ([1]; 2× rate) was 170. For the same compound, the “% seed-set” value ([1]; 4× rate) was 6%, the “No. filled seeds/3 panicles” value ([1]; 4× rate) was 10 and the “Total No. of kernels/3 panicles” value ([1]; 4× rate) was 170. The “% seed-set” value ([1]; 6× rate) was 1%, the “No. filled seeds/3 panicles” value ([1]; 6× rate) was 2 and the “Total No. of kernels/3 panicles” value ([1]; 6× rate) was 178. The “% seed-set” value ([2]; 1× rate) was 90%, the “No. filled seeds/3 panicles” value ([2]; 1× rate) was 122 and the “Total No. of kernels/3 panicles” value ([2]; 1× rate) was 137. For the same compound, the “% seed-set” value ([2]; 2× rate) was 81%, the “No. filled seeds/3 panicles” value ([2]; 2× rate) was 116 and the “Total No. of kernels/3 panicles” value ([2]; 2× rate) was 144. For the same compound, the “% seed-set” value ([2]; 4× rate) was 26%, the “No. filled seeds/3 panicles” value ([2]; 4× rate) was 41 and the “Total No. of kernels/3 panicles” value ([2]; 4× rate) was 179. For the same compound, the “% seed-set” value ([2]; 6× rate) was 19%, the “No. filled seeds/3 panicles” value ([2]; 6× rate) was 27 and the “Total No. of kernels/3 panicles” value ([2]; 6× rate) was 140. The “% seed-set” value ([3]; 1× rate) was 0%, the “No. filled seeds/3 panicles” value ([3]; 1× rate) was 0 and the “Total No. of kernels/3 panicles” value ([3]; 1× rate) was 0. The “% seed-set” value ([3]; 2× rate) was 0%, the “No. filled seeds/3 panicles” value ([3]; 2× rate) was 0 and the “Total No. of kernels/3 panicles” value ([3]; 2× rate) was 0. The “% seed-set” value ([3]; 4× rate) was 0%, the “No. filled seeds/3 panicles” value ([3]; 4× rate) was 0 and the “Total No. of kernels/3 panicles” value ([3]; 4× rate) was 0. For the same compound, the “% seed-set” value ([3]; 6× rate) was 0%, the “No. filled seeds/3 panicles” value ([3]; 6× rate) was 0 and the “Total No. of kernels/3 panicles” value ([3]; 6× rate) was 0. The “inhibition of AHAS activity from tolerant Line 26 and Line 29” value [4] was “insensitive to inhibition”.
Cc1cnc(C2=NC(=O)C(C)(C(C)C)N2)c(C(=O)O)c1 (stereo not shown) [CADRE ®, imazameth] was tested, and the “% seed-set” value ([1]; 1× rate) was 84%, the “No. filled seeds/3 panicles” value ([1]; 1× rate) was 133 and the “Total No. of kernels/3 panicles” value ([1]; 1× rate) was 159. The “% seed-set” value ([1]; 2× rate) was 95%, the “No. filled seeds/3 panicles” value ([1]; 2× rate) was 153 and the “Total No. of kernels/3 panicles” value ([1]; 2× rate) was 161. For the same compound, the “% seed-set” value ([1]; 4× rate) was 87%, the “No. filled seeds/3 panicles” value ([1]; 4× rate) was 124 and the “Total No. of kernels/3 panicles” value ([1]; 4× rate) was 143. The “% seed-set” value ([1]; 6× rate) was 77%, the “No. filled seeds/3 panicles” value ([1]; 6× rate) was 131 and the “Total No. of kernels/3 panicles” value ([1]; 6× rate) was 169. For the same compound, the “% seed-set” value ([2]; 1× rate) was 88%, the “No. filled seeds/3 panicles” value ([2]; 1× rate) was 154 and the “Total No. of kernels/3 panicles” value ([2]; 1× rate) was 175. For the same compound, the “% seed-set” value ([2]; 2× rate) was 86%, the “No. filled seeds/3 panicles” value ([2]; 2× rate) was 143 and the “Total No. of kernels/3 panicles” value ([2]; 2× rate) was 166. The “% seed-set” value ([2]; 4× rate) was 82%, the “No. filled seeds/3 panicles” value ([2]; 4× rate) was 126 and the “Total No. of kernels/3 panicles” value ([2]; 4× rate) was 154. The “% seed-set” value ([2]; 6× rate) was 80%, the “No. filled seeds/3 panicles” value ([2]; 6× rate) was 127 and the “Total No. of kernels/3 panicles” value ([2]; 6× rate) was 159. The “% seed-set” value ([3]; 1× rate) was 98%, the “No. filled seeds/3 panicles” value ([3]; 1× rate) was 92 and the “Total No. of kernels/3 panicles” value ([3]; 1× rate) was 94. For the same compound, the “% seed-set” value ([3]; 2× rate) was 83%, the “No. filled seeds/3 panicles” value ([3]; 2× rate) was 76 and the “Total No. of kernels/3 panicles” value ([3]; 2× rate) was 82. The “% seed-set” value ([3]; 4× rate) was 0%, the “No. filled seeds/3 panicles” value ([3]; 4× rate) was 0 and the “Total No. of kernels/3 panicles” value ([3]; 4× rate) was 0. For the same compound, the “% seed-set” value ([3]; 6× rate) was 0%, the “No. filled seeds/3 panicles” value ([3]; 6× rate) was 0 and the “Total No. of kernels/3 panicles” value ([3]; 6× rate) was 0.
